Values quoted from earlier work in patent publication US8691514B2, “Method for selective control of helper T cell function” (Japan Science and Technology Agency, priority 2008, dated 2014).

Legend:
CD8 positive T cell = details: treated with GlcCer synthetase inhibitor; Nagafuku et al. 2003, Blank et al. 2005
CD4 positive T cell = details: treated with GlcCer synthetase inhibitor; Nagafuku et al. 2003, Blank et al. 2005

CCCCCCCCCC(=O)N[C@H](CN1CCOCC1)[C@H](O)c1ccccc1.Cl [D-PDMP, D-threo-1-phenyl-2-decanoylamiono-3-morpholino-1-prppanol.HCl]
function of the CD8 positive T cell (CD8 positive T cell): suppressed | function of the CD4 positive T cell (CD4 positive T cell): suppressed
